Patent US5344932A, “N-(pyrrolo(2,3-d)pyrimidin-3-ylacyl)-glutamic acid derivatives” (Trustees of Princeton University, priority 1991, dated 1994)

Experiments:
[1] = test system: human T-cell derived lyphoblastic leukemia cells (CCRF-CEM); test: Inhibition of growth of CCRF-CEM cell cultures; type: cell-based
Text: (§1) As noted, the compounds of this invention have an effect on one or more enzymes which utilize folic acid, and in particular metabolic derivatives of folic acid, as a substrate. […] Cytotoxicity is not reversed by addition of purines such as hypoxanthine or by addition of aminoimidazolecarboxamide but is reversed by addition of thymidine, indicating specific inhibition in the tymidylate cycle and not in de novo purine synthesis. The compounds can be used, under the supervision of qualified professionals, to inhibit the growth of neoplasms including choriocarcinoma, leukemia, adenocarcinoma of the female breast, epidermid cancers of the head and neck, squamous or small-cell lung cancer, and various lymphosarcomas. The compounds can also be used to treat mycosis fungoides and psoriasis.
Representative inhibition values against CCRF-CEM 5 cell cultures for typical compounds are as follows: […]

L5178Y/TK^- tumor line = test: In vivo activity against L5178Y/TK^- tumor line in DBA/2 mice (female)
Experimental: In vivo activity can be seen from the following representative data for N-{4-[2-(4-hydroxy-6-aminopyrrolo[2,3-d]pyrimidin-3-yl)ethyl]benzoyl}-L-glutamic acid against the L5178Y/TK^- tumor line in DBA/2 mice (female), administration being ip in a total volume of 0.5 mL daily for eight days: […]

[2] = test system: human T-cell derived lyphoblastic leukemia cells (CCRF-CEM); test: Reversal of cytotoxicity by addition of hypoxanthine/purines, AICA, thymidine or leucovorin; type: cell-based
Text: as §1
Cytotoxicity is also reversed by addition of leucovorin, indicating the cytotoxicity is due to antagonism of a folate-related mechanism.

[3] = dose 25.00, ip daily for eight days
[4] = dose 50.00, ip daily for eight days
[5] = dose 100.00, ip daily for eight days
[6] = dose 200.00, ip daily for eight days

Row | SMILES | IC50 [1] | Toxicity (L5178Y/TK^- tumor line; dose 12.50, ip daily for eight days) | % Inhibition (L5178Y/TK^- tumor line; [3]) | Toxicity (L5178Y/TK^- tumor line; [3]) | Tumor Weight (L5178Y/TK^- tumor line; [3]) | % Inhibition (L5178Y/TK^- tumor line; [4]) | Toxicity (L5178Y/TK^- tumor line; [4]) | Tumor Weight (L5178Y/TK^- tumor line; [4]) | % Inhibition (L5178Y/TK^- tumor line; [5]) | Toxicity (L5178Y/TK^- tumor line; [5]) | Tumor Weight (L5178Y/TK^- tumor line; [5]) | % Inhibition (L5178Y/TK^- tumor line; [6]) | Toxicity (L5178Y/TK^- tumor line; [6]) | Tumor Weight (L5178Y/TK^- tumor line; [6]) | Reversal of cytotoxicity by addition of aminoimidazolecarboxamide (AICA) ([2]; addition of aminoimidazolecarboxamide (AICA)) | Reversal of cytotoxicity by addition of purines such as hypoxanthine ([2]; addition of hypoxanthine) | Reversal of cytotoxicity by addition of thymidine ([2]; addition of thymidine)
1 | Nc1nc(O)c2c(CCc3ccc(C(=O)N[C@@H](CCC(=O)O)C(=O)O)o3)c[nH]c2n1 [N-{5-[2-(4-hydroxy-6-aminopyrrolo[2,3-d]pyrimidin-3-yl)ethyl]fur-2-ylcarbonyl}-L-glutamic acid] | > 20 µg/mL | – | – | – | – | – | – | – | – | – | – | – | – | – | – | – | –
2 | Nc1nc2[nH]cc(CCc3ccc(C(=O)N[C@@H](CCC(=O)O)C(=O)O)cc3)c2c(=O)[nH]1 | – | 0/7 | 100% | 0/7 | 0 ± 0 | 100% | 0/6 | 0 ± 0 | 100% | 0/7 | 0 ± 0 | 100% | 0/7 | 0 ± 0 | not reversed | not reversed | reversed
